In patent US20150011508A1, “COMPOUNDS AND COMPOSITIONS AS C-KIT KINASE INHIBITORS” (priority 2011, published 2015):
pIC50: −log10 of the molar value.

Each compound was assayed against T1, c-kit (Homo sapiens, UniProt P10721) (assay: Mo7e cell proliferation assay (SCF dependent proliferation)). Conditions: Table 1; human Mo7e cells stimulated with human recombinant SCF, 48 h, CellTiter Glo; 1% FBS (footnote).
T1 construct: human Mo7e cells which endogenously express c-kit; endogenous in cells; host or cells: human Mo7e cells (SCF-dependent promegakaryocytic leukemia line)
T1 sequence (P10721 26-976): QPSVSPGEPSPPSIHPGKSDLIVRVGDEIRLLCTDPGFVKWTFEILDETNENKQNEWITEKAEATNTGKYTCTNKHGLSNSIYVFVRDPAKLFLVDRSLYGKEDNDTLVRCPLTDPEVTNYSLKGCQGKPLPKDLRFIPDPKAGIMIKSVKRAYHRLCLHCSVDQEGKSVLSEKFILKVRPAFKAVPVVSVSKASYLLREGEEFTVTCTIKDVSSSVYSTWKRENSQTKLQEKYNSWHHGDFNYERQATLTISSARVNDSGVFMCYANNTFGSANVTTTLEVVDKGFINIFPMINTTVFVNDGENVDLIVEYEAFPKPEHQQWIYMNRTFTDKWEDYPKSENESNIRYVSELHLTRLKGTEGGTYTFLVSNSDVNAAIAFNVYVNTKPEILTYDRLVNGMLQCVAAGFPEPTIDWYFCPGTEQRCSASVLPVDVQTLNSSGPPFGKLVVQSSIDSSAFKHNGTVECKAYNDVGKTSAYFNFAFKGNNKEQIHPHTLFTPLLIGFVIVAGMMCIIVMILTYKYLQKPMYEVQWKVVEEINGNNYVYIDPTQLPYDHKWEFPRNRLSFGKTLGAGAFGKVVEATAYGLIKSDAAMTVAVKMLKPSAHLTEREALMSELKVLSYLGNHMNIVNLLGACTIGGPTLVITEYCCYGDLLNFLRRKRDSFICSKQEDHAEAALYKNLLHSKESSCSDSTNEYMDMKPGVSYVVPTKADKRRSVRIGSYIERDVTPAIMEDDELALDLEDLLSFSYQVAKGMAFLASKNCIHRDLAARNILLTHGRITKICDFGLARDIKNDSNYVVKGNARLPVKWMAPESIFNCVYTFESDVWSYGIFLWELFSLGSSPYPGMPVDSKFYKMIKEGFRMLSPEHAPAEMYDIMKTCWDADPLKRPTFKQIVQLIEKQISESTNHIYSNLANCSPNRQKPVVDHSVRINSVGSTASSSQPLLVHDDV
Type: cell-based
In short: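 SCF-dependent proliferation of human Mo7e cells, which express c-kit endogenously, was measured after 48 h at 37° C by CellTiter Glo luminescence. IC50 was taken as the concentration giving a response halfway between the baseline and maximum responses.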
For `Cc1nc(-c2ccc(C)c(NC(=O)c3cnc4ccc(-c5cccn5C)cn34)c2)no1` [F101], the pIC50 was 7.10. With `COP(=O)(OC)OC(C)(CCc1nc(-c2ccc(C)c(NC(=O)c3cnc4cc(C)ccn34)c2)no1)C(F)(F)F` (single isomer, unassigned) [F269] the pIC50 was 7.30. `COCCOCc1nc(-c2ccc(C)c(NC(=O)c3cnc4ccc(C)cn34)c2)no1` [F58] gave a pIC50 of 7.05. Compound `Cc1ccc(-c2noc(CNC(=O)OC(C)C)n2)cc1NC(=O)c1cnc2ccccn12` [F30] has a pIC50 of 7.21. `Cc1ccn2c(C(=O)Nc3cc(-c4noc(CCC(C)(OP(=O)(O)O)C(F)(F)F)n4)ccc3C)cnc2c1` (stereo in doubt) [F270, (R)-1,1,1-trifluoro-2-methyl-4-(3-(4-methyl-3-(7-methylimidazo[1,2-a]pyridine-3-carboxamido)phenyl)-1,2,4-oxadiazol-5-yl)butan-2-yl dihydrogen phosphate] gave a pIC50 of 7.60. With `CCN(Cc1nc(-c2ccc(C)c(NC(=O)c3cnc4ccccn34)c2)no1)C(=O)OC(C)(C)C` [F21] the pIC50 was 7.26. With `Cc1ccc(-c2noc(CCC(C)(C)O)n2)cc1NC(=O)c1cnc2cc(N3CCOCC3)ccn12` [F60] the pIC50 was 7.24. With `CCOCCOCc1nc(-c2ccc(C)c(NC(=O)c3cnc4ccccn34)c2)no1` [F32] the pIC50 was 7.14. Work on `Cc1ccc(-c2noc(COCCOC(C)(C)C)n2)cc1NC(=O)c1cnc2ccccn12` [F34] yielded a pIC50 of 7.03. Work on `Cc1nc(-c2ccc(C)c(NC(=O)c3cnc4ccc(-c5c(C)n[nH]c5C)cn34)c2)no1` [F104, 6-(3,5-dimethyl-1H-pyrazol-4-yl)-N-(2-methyl-5-(5-methyl-1,2,4-oxadiazol-3-yl)phenyl)imidazo[1,2-a]pyridine-3-carboxamide] yielded a pIC50 of 8.05. Compound `Cc1ccc(-c2noc(COCC(F)F)n2)cc1NC(=O)c1cnc2ccccn12` [F94, N-(5-(5-((2,2-difluoroethoxy)methyl)-1,2,4-oxadiazol-3-yl)-2-methylphenyl)imidazo[1,2-a]pyridine-3-carboxamide] has a pIC50 of 7.41. Work on `Cc1ccc(-c2noc(CC[C@](C)(O)C(F)(F)F)n2)cc1NC(=O)c1cnc2cc(F)ccn12` [F86] yielded a pIC50 of 7.37. Compound `Cc1ccc(-c2noc(CNS(=O)(=O)C(C)C)n2)cc1NC(=O)c1cnc2ccccn12` [F25] has a pIC50 of 7.10. `Cc1nc(-c2ccc(C)c(NC(=O)c3cnc4ccc(-c5c[nH]nc5C)cn34)c2)no1` [F257, 6-(3-methyl-1H-pyrazol-4-yl)-N-(2-methyl-5-(5-methyl-1,2,4-oxadiazol-3-yl)phenyl)imidazo[1,2-a]pyridine-3-carboxamide] gave a pIC50 of 7.72. Compound `Cc1ccc(-c2noc(N(C)CC(C)(C)O)n2)cc1NC(=O)c1cnc2cc(F)ccn12` [F65] has a pIC50 of 7.00. In the case of `Cc1nc(-c2ccc(C)c(NC(=O)c3cnc4ccc(-c5sc(C(=O)NCCO)nc5C)cn34)c2)no1` [F263, N-(2-hydroxyethyl)-4-methyl-5-(3-((2-methyl-5-(5-methyl-1,2,4-oxadiazol-3-yl)phenyl)carbamoyl)imidazo[1,2-a]pyridin-6-yl)thiazole-2-carboxamide], the pIC50 was 7.24. `CCCC(C)c1nc(-c2ccc(C)c(NC(=O)c3cnc4ccc(C)cn34)c2)no1` (stereo not drawn) [F59] showed a pIC50 of 7.66. In the case of `Cc1ccc(-c2noc(CCC(C)O)n2)cc1NC(=O)c1cnc2ccccn12` (stereo not drawn) [F9, N-(5-(5-(3-hydroxybutyl)-1,2,4-oxadiazol-3-yl)-2-methylphenyl)imidazo[1,2-a]pyridine-3-carboxamide], the pIC50 was 7.06. For `Cc1ccn2c(C(=O)Nc3cc(-c4noc(CC[C@@](C)(O)C(F)(F)F)n4)ccc3C)cnc2c1` (single isomer, unassigned) [F76], the pIC50 was 7.31. `Cc1nc(-c2ccc(C)c(NC(=O)c3cnc4ccc(-c5ccccc5C)cn34)c2)no1` [F81, N-(2-methyl-5-(5-methyl-1,2,4-oxadiazol-3-yl)phenyl)-6-(o-tolyl)imidazo[1,2-a]pyridine-3-carboxamide] showed a pIC50 of 7.02. `CCOCc1nc(-c2ccc(C)c(NC(=O)c3cnc4ccccn34)c2)no1` [F12] was tested, and the pIC50 was 7.31. `Cc1ccc(-c2noc(CCC(C)(O)C(F)(F)F)n2)cc1NC(=O)c1cnc2cc(F)ccn12` (stereo not drawn) [F70] showed a pIC50 of 7.36. `Cc1nc(-c2ccc(C)c(NC(=O)c3cnc4ccc(-c5cccnc5C)cn34)c2)no1` [F82] was tested, and the pIC50 was 7.28. `Cc1ccc(-c2noc(C(C)OCC(F)(F)F)n2)cc1NC(=O)c1cnc2ccccn12` (stereo not drawn) [F266] gave a pIC50 of 7.96. `Cc1ccc(-c2noc(CC[C@](C)(O)C(F)(F)F)n2)cc1NC(=O)c1cnc2ccc(F)cn12` [F85] showed a pIC50 of 7.42. With `Cc1ccc(-c2noc([C@@H](C)NS(C)(=O)=O)n2)cc1NC(=O)c1cnc2ccccn12` [F18] the pIC50 was 7.01. With `[2H]c1c([2H])c([2H])n2c(C(=O)Nc3cc(-c4noc(CC=C(C)C)n4)ccc3C)cnc2c1[2H]` [F52] the pIC50 was 7.80. Compound `COC(C)(CCc1nc(-c2ccc(C)c(NC(=O)c3cnc4cc(C)ccn34)c2)no1)C(F)(F)F` (stereo not drawn) [F90] has a pIC50 of 7.32. In the case of `CCOC(=O)NCc1nc(-c2ccc(C)c(NC(=O)c3cnc4ccccn34)c2)no1` [F29], the pIC50 was 7.10. With `COP(=O)(OC)OC(C)(CCc1nc(-c2ccc(C)c(NC(=O)c3cnc4cc(C)ccn34)c2)no1)C(F)(F)F` (single isomer, unassigned) [F267] the pIC50 was 7.25. Compound `CCS(=O)(=O)NCc1nc(-c2ccc(C)c(NC(=O)c3cnc4ccccn34)c2)no1` [F20] has a pIC50 of 7.21. `Cc1ccc(-c2noc(COC(CF)CF)n2)cc1NC(=O)c1cnc2ccccn12` [F95] showed a pIC50 of 7.55. `CCOC(=O)NCc1nc(-c2ccc(C)c(NC(=O)c3cnc4ccc(F)cn34)c2)no1` [F38] showed a pIC50 of 7.33. `Cc1ccc2ncc(C(=O)Nc3cc(-c4noc(CC[C@@](C)(O)C(F)(F)F)n4)ccc3C)n2c1` [F87] gave a pIC50 of 7.54. With `Cc1ccc(-c2noc(CNC(=O)OC(C)(C)C)n2)cc1NC(=O)c1cnc2ccccn12` [F6] the pIC50 was 8.10.

Same assay, conditions: Table 2; human Mo7e cells stimulated with human recombinant SCF, 48 h, CellTiter Glo; 1% FBS (footnote)
`Cc1cc(F)c(-c2noc(CNC(=O)OC(C)(C)C)n2)cc1NC(=O)c1cnc2ccccn12` [F156] was tested, and the pIC50 was 6.70. In the case of `CCNC(=O)CCc1nc(-c2ccc(C)c(NC(=O)c3cnc4ccccn34)c2)no1` [F118], the pIC50 was 6.28. With `Cc1ccc(-c2noc(CN)n2)cc1NC(=O)c1cnc2ccccn12` [F217] the pIC50 was 5.99. In the case of `COC(=O)NCc1nc(-c2ccc(C)c(NC(=O)c3cnc4cc(CCC(C)=O)ccn34)c2)no1` [F177], the pIC50 was 6.62. Work on `Cc1ccc(-c2noc(COCCO)n2)cc1NC(=O)c1cnc2ccccn12` [F163] yielded a pIC50 of 6.72. Work on `Cc1ccc(-c2nc(C(C)(C)C)no2)cc1NC(=O)c1cnc2ccccn12` [F225] yielded a pIC50 of 5.80. Compound `Cc1ccc(-c2noc(CCC(C)(C)O)n2)cc1NC(=O)c1cnc2ccc(N3CCOCC3)cn12` [F194] has a pIC50 of 6.90. `COCCOC(=O)NCc1nc(-c2ccc(C)c(NC(=O)c3cnc4ccccn34)c2)no1` [F165] was tested, and the pIC50 was 6.29. `Cc1ccc(-c2noc(CNC(=O)CCOCC(F)(F)F)n2)cc1NC(=O)c1cnc2ccccn12` [F166] showed a pIC50 of 6.67. `Cc1ccc(-c2noc(CCC(C)(C)O)n2)cc1NC(=O)c1cnc2ccc(COCC(F)(F)F)cn12` [F195] showed a pIC50 of 6.82. `COC(=O)N[C@H](C)c1nc(-c2ccc(C)c(NC(=O)c3cnc4ccccn34)c2)no1` [F137] gave a pIC50 of 6.71. `CO[C@@H](C)C(=O)NCc1nc(-c2ccc(C)c(NC(=O)c3cnc4ccccn34)c2)no1` [F133] was tested, and the pIC50 was 6.74. `Cc1ccc(-c2noc(CC#N)n2)cc1NC(=O)c1cnc2ccccn12` [F227] showed a pIC50 of 5.62. For `COCc1n[nH]c(-c2ccc3ncc(C(=O)Nc4cc(-c5noc(C)n5)ccc4C)n3c2)n1` [F196], the pIC50 was 6.38. `Cc1ccc(-c2noc(C(C)F)n2)cc1NC(=O)c1cnc2ccccn12` (stereo not drawn) [F200] was tested, and the pIC50 was 6.92. With `Cc1nc(-c2ccc(C)c(NC(=O)c3cnc4ccc(-c5c(C)nn(CC(=O)NCCN6CCOCC6)c5C)cn34)c2)no1` [F239] the pIC50 was 6.71. For `Cc1ccc(-c2noc(CCC(C)(C)O)n2)cc1NC(=O)c1cnc2cc(F)ccn12` [F169], the pIC50 was 6.85. Work on `Cc1nc(-c2ccc(C)c(NC(=O)c3cnc4ccc(C(N)=O)cn34)c2)no1` [F240] yielded a pIC50 of 5.83. With `COC(=O)NCc1nc(-c2ccc(C)c(NC(=O)c3cnc4ccc(C#N)cn34)c2)no1` [F168] the pIC50 was 6.66. `Cc1ccc(-c2noc(CN(C)S(C)(=O)=O)n2)cc1NC(=O)c1cnc2ccccn12` [F144, N-(2-methyl-5-(5-((N-methylmethylsulfonamido)methyl)-1,2,4-oxadiazol-3-yl)phenyl)imidazo[1,2-a]pyridine-3-carboxamide] gave a pIC50 of 6.81. Work on `Cc1ccc(-c2noc([C@@H](C)N)n2)cc1NC(=O)c1cnc2ccccn12` [F127] yielded a pIC50 of 6.71. With `COC(=O)N[C@@H](C)c1nc(-c2ccc(C)c(NC(=O)c3cnc4ccccn34)c2)no1` [F135] the pIC50 was 6.78. `Cc1ccc(-c2noc(CNC(=O)C(C)(C)O)n2)cc1NC(=O)c1cnc2ccccn12` [F134] was tested, and the pIC50 was 6.76. With `Cc1ccc(-c2noc(C(O)C(F)(F)F)n2)cc1NC(=O)c1cnc2ccccn12` (stereo not drawn) [F162] the pIC50 was 6.58. Compound `COC(=O)NCc1nc(-c2ccc(C)c(NC(=O)c3cnc4cc(F)ccn34)c2)no1` [F159] has a pIC50 of 6.74. Work on `COCCOCc1nc(-c2ccc(C)c(NC(=O)c3cnc4ccccn34)c2C)no1` [F215] yielded a pIC50 of 6.05. Compound `COC(=O)NCc1nc(-c2ccc(C)c(NC(=O)c3cnc4cc(C#N)ccn34)c2)no1` [F158] has a pIC50 of 6.11. With `Cc1ccn2c(C(=O)Nc3cc(-c4noc(CC[C@](C)(OC(=O)[C@H](N)C(C)C)C(F)(F)F)n4)ccc3C)cnc2c1` [F252] the pIC50 was 6.87. With `Cc1ccc(-c2noc(CNC(=O)OCCF)n2)cc1NC(=O)c1cnc2ccccn12` [F157] the pIC50 was 6.81. Work on `Cc1ccc(-c2noc(C(C)(C)O)n2)cc1NC(=O)c1cnc2ccccn12` [F173] yielded a pIC50 of 6.55. Compound `COCCOCc1nc(-c2ccc(F)c(NC(=O)c3cnc4ccc(-c5cnn(CC(C)(C)O)c5)cn34)c2)no1` [F182] has a pIC50 of 6.48. With `Cc1nc(-c2ccc(C)c(NC(=O)c3cnc4ccc(-c5cncnc5)cn34)c2)no1` [F206] the pIC50 was 6.71. For `Cc1nc(-c2ccc(C)c(NC(=O)c3cnc4ccc(-c5csc(N6CCOCC6)n5)cn34)c2)no1` [F176], the pIC50 was 6.65. `Cc1nc(-c2ccc(C)c(NC(=O)c3cnc4ccc(-c5nc(C)c(C(C)O)s5)cn34)c2)no1` (stereo not drawn) [F236] gave a pIC50 of 6.78.
